Measured values: ChEMBL document CHEMBL5550126, “Identification of naphthalimide-derivatives as novel PBD-targeted polo-like kinase 1 inhibitors with efficacy in drug-resistant lung cancer cells” (Eur J Med Chem, 2024)
The source made the active and inactive calls. The rule behind the calls is not given here.

Columns and labels:
[1] = Toxicity in male BALB/c nude mouse xenografted with human A549/DDP cells assessed as kidney damage at 30 to 50 mg/kg, ip administered every 2 days for 32 days by H and E staining based analysis; assay type: organism-based, A549/CDDP; details: in vivo, 768 h, dose 30-50 mg/kg, time 32 day
[2] = GSH reactivity in human A549 cells assessed as increase in fluorescence intensity measured after 48 hrs; assay type: ADME, cell-based; details: a549, 48 h, dose 0-9 µM
[3] = molecular target: T1, Serine/threonine-protein kinase PLK1 (Homo sapiens, UniProt P53350); assay: Binding affinity to FLAG-tagged PLK1 kinase region (unknown origin) transfected in human A549 cells at 10 uM incubated for 1 hr by coimmunoprecipitation-MS analysis; assay type: cell-based
T1 sequence (P53350 whole entry): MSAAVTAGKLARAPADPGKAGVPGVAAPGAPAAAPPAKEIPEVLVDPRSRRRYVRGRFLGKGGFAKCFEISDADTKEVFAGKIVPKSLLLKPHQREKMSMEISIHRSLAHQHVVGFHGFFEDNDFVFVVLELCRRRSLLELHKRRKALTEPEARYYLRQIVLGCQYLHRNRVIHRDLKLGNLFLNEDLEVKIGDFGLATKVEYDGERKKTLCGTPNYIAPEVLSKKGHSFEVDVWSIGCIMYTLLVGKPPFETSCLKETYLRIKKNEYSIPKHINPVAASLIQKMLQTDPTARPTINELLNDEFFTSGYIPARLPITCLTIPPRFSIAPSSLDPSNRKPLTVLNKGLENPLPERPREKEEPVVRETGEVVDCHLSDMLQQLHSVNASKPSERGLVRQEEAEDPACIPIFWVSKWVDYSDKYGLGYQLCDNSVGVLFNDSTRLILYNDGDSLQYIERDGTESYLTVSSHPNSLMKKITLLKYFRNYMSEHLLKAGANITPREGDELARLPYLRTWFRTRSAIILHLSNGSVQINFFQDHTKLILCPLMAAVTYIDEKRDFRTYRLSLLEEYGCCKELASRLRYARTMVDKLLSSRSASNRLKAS

A549/CDDP [4] = assay: Antitumor activity against human A549/DDP cells assessed as male BALB/c nude mouse assessed as increase in survival time at 30 to 50 mg/kg, ip administered every 2 days for 32 days; assay type: functional, organism-based; details: dose 30-50 mg/kg, time 32.0 day
[5] = Toxicity in male BALB/c nude mouse xenografted with human A549/DDP cells assessed as liver damage at 30 to 50 mg/kg, ip administered every 2 days for 32 days by H and E staining based analysis; assay type: organism-based, A549/CDDP; details: in vivo, 768 h, dose 30-50 mg/kg, time 32 day
T-24 = assay: Anticancer activity against human T24 cells assessed as inhibition of cell growth incubated for 48 hrs by crystal violet staining based analysis; assay type: functional; details: T-24, 48 h
A549/CDDP [6] = assay: Effect on CDK2 protein expression in human A549/DDP cells assessed as effect on protein abundance at 0 to 6 uM measured after 48 hrs by Western blot analysis; assay type: functional, cell-based; details: dose 0-6 µM
[7] = Toxicity in male BALB/c nude mouse xenografted with human gefitinib resistant NCI-H1975 cells assessed as lung damage at 30 mg/kg, po administered every 2 days for 20 days and measured 3 times a week by H and E staining based analysis; assay type: organism-based; details: in vivo, 480 h, time 20 day
[8] = Antitumor activity against human gefitinib resistant NCI-H1975 cells xenografted in male BALB/c nude mouse assessed as inhibition of tumor growth at 30 mg/kg, po administered every 2 days for 20 days and measured 3 times a week relative to control; assay type: functional; details: gefitinib resistant NCI-H1975 cell, 480 h, time 20 day, read-out: TGI
A549 [9] = assay: Disruption of PLK1-PRC1 protein protein interaction in human A549 cells assessed as reduction in amount of PLK1 captured by PRC1 antibody at 6 uM measured after 48 hrs by Co-IP analysis; assay type: cell-based
A549/CDDP [10] = assay: Antitumor activity against human A549/DDP cells assessed as male BALB/c nude mouse assessed as reduction in tumor growth at 30 to 50 mg/kg, ip administered every 2 days for 32 days and measured 3 times a week; assay type: functional, organism-based; details: dose 30-50 mg/kg, time 32.0 day
[11] = Toxicity in male BALB/c nude mouse xenografted with human A549/DDP cells assessed as lung damage at 30 to 50 mg/kg, ip administered every 2 days for 32 days by H and E staining based analysis; assay type: organism-based, A549/CDDP; details: in vivo, 768 h, dose 30-50 mg/kg, time 32 day
[12] = Toxicity in male BALB/c nude mouse xenografted with human gefitinib resistant NCI-H1975 cells assessed as heart damage at 30 mg/kg, po administered every 2 days for 20 days and measured 3 times a week by H and E staining based analysis; assay type: organism-based; details: in vivo, 480 h, time 20 day
[13] = Antiproliferative activity against human gefitinib resistant NCI-H1975 cells assessed as inhibition of cell growth incubated for 48 hrs by crystal violet staining based analysis; assay type: functional
A549/CDDP [14] = assay: Antitumor activity against human A549/DDP cells assessed as male BALB/c nude mouse assessed as median survival time at 30 mg/kg, ip administered every 2 days for 32 days (reference value: 38 days); assay type: functional; details: time 32 day
A549 [15] = assay: Induction of cell cycle arrest at G2/M phase in human A549 cells at 0 to 15 uM measured after 48 hrs by RNase A/PI staining based flow cytometry analysis; assay type: functional; details: dose 0-15 µM
A549/CDDP [16] = assay: Anticancer activity against human A549/DDP cells assessed as inhibition of cell growth incubated for 48 hrs by crystal violet staining based analysis; assay type: functional
A549/CDDP [17] = assay: Antitumor activity against human A549/DDP cells assessed as male BALB/c nude mouse assessed as tumor growth inhibition at 30 mg/kg, ip administered every 2 days for 32 days and measured 3 times a week relative to control; assay type: functional; details: 768 h, time 32 day, read-out: TGI
A549/CDDP [18] = assay: Disruption of redox homeostasis in human A549/DDP cells assessed as increase in ROS level at 0 to 9 uM measured after 48 hrs; assay type: functional, cell-based; details: dose 0-9 µM
A549/CDDP [19] = assay: Disruption of redox homeostasis in human A549/DDP cells assessed as induction of cell death; assay type: functional, cell-based
[20] = molecular target: T1, Serine/threonine-protein kinase PLK1; assay: Inhibition of PLK1 in human A549/DDP cells assessed as reduction in protein abundance measured after 48 hrs by Western blot analysis; assay type: cell-based
[21] = molecular target: T1, Serine/threonine-protein kinase PLK1; assay: Inhibition of PLK1 in human A549/DDP cells assessed as reduction in PLK1 phosphorylation measured after 48 hrs by Western blot analysis; assay type: cell-based
[22] = Toxicity in male BALB/c nude mouse xenografted with human gefitinib resistant NCI-H1975 cells assessed as liver damage at 30 mg/kg, po administered every 2 days for 20 days and measured 3 times a week by H and E staining based analysis; assay type: organism-based; details: in vivo, 480 h, time 20 day
[23] = Toxicity in male BALB/c nude mouse xenografted with human A549/DDP cells assessed as change in liver index at 30 to 50 mg/kg, ip administered every 2 days for 32 days; assay type: organism-based, A549/CDDP; details: in vivo, 768 h, dose 30-50 mg/kg, time 32 day
[24] = Toxicity in male BALB/c nude mouse xenografted with human A549/DDP cells assessed as change in lung index at 30 to 50 mg/kg, ip administered every 2 days for 32 days; assay type: organism-based, A549/CDDP; details: in vivo, 768 h, dose 30-50 mg/kg, time 32 day
[25] = GSH reactivity of compound in PBS assessed as increase in fluorogenic response at 0 to 800 uM measured after 60 mins by fluorescence spectrophotometer; assay type: physicochemical; details: buffer, 1 h, dose 0-800 µM
A549 [26] = assay: Induction of mitotic catastrophe in human A549 cells assessed as downregulation of CDC25 protein expression at 1.5 to 6 uM measured after 48 hrs by Western blot analysis; assay type: functional, cell-based; details: dose 1.5-6 µM
[27] = molecular target: T1, Serine/threonine-protein kinase PLK1; assay: Binding affinity to recombinant PLK1 (unknown origin) assessed as dissociation constant by SPR analysis
SK-OV-3 = assay: Anticancer activity against human SK-OV-3 cells assessed as inhibition of cell growth incubated for 48 hrs by crystal violet staining based analysis; assay type: functional; details: SK-OV-3, 48 h
A549/CDDP [28] = assay: Antitumor activity against human A549/DDP cells assessed as male BALB/c nude mouse assessed as tumor regression at 50 mg/kg, ip administered every 2 days for 32 days and measured 3 times a week; assay type: functional, organism-based; details: time 32.0 day
A549/CDDP [29] = assay: Antitumor activity against human A549/DDP cells assessed as male BALB/c nude mouse assessed as tumor growth inhibition at 50 mg/kg, ip administered every 2 days for 32 days and measured 3 times a week relative to control; assay type: functional; details: 768 h, time 32 day, read-out: TGI
MGC-803 = assay: Anticancer activity against human MGC-803 cells assessed as inhibition of cell growth incubated for 48 hrs by crystal violet staining based analysis; assay type: functional; details: MGC-803, 48 h
[30] = Toxicity in male BALB/c nude mouse xenografted with human A549/DDP cells assessed as reduction in body weight at 30 to 50 mg/kg, ip administered every 2 days for 32 days and measured 3 times a week; assay type: organism-based, A549/CDDP; details: in vivo, 768 h, dose 30-50 mg/kg, time 32 day

For `CN(C)CCN1C(=O)c2cccc3c(S(=O)(=O)NCc4ccc(F)cc4)ccc(c23)C1=O`, the Activity [1] was “Non-Toxic”, the Drug metabolism [2] was “Metabolite_Detected” and the Activity [3] was “inactive”. The Activity (A549/CDDP [4]) was “Active”, the Activity [5] was “Non-Toxic” and the IC50 (T-24) was 2900 nM. The Activity (A549/CDDP [6]) was “Active”, the Activity [7] was “Non-Toxic” and the inhibition in vivo at 30 mg/kg [8] was 44%. For the same compound, the Activity (A549 [9]) was “Active”, the Activity (A549/CDDP [10]) was “Active” and the Activity [11] was “Non-Toxic”. For the same compound, the Activity [12] was “Non-Toxic”, the IC50 [13] was 7830 nM and the MSD (A549/CDDP [14]) was 53 days. For the same compound, the Activity (A549 [15]) was “Active”, the IC50 (A549/CDDP [16]) was 2650 nM and the inhibition in vivo at 30 mg/kg (A549/CDDP [17]) was 42%. For the same compound, the Activity (A549/CDDP [18]) was “Active”, the Activity (A549/CDDP [19]) was “Active” and the inhibition [20] was “Active”. For the same compound, the inhibition [21] was “Active”, the Activity [22] was “Non-Toxic” and the Activity [23] was “Non-Toxic”. The Activity [24] was “Non-Toxic”, the Drug metabolism [25] was “Metabolite_Detected” and the Activity (A549 [26]) was “Active”. The Kd [27] was 290 nM, the IC50 (SK-OV-3) was 2840 nM and the Activity (A549/CDDP [28]) was “Active”. For the same compound, the inhibition in vivo at 50 mg/kg (A549/CDDP [29]) was 62%, the IC50 (MGC-803) was 3200 nM and the Activity [30] was “Non-Toxic”.
